For the test, the target named is T1, hCRTH2 receptor (Homo sapiens, UniProt Q9Y5Y4).
T1 construct: expressed in transfected cells; host or cells: HEK293
T1 sequence (Q9Y5Y4 1-395): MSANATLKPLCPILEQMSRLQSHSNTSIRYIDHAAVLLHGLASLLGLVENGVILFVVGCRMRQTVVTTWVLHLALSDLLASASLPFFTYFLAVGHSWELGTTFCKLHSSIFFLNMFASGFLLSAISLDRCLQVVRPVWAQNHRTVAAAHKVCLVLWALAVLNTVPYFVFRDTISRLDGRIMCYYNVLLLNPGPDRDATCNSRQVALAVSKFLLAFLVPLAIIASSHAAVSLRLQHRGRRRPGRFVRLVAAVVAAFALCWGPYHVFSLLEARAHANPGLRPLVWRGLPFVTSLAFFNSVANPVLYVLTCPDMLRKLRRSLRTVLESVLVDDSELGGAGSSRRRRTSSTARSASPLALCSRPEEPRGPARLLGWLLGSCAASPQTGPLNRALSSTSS
Nature of the test: Radioligand displacement assay (3H-PGD2) on hCRTH2 receptor membranes. The following applies: antagonistic activity. The class given is binding.

[1] abbreviates: 3H-PGD2 radioligand displacement, HEK293-hCRTH2 membranes.
[2] abbreviates: 3H-PGD2 displacement on HEK293-hCRTH2 membrane fragments.

The structures appear in SMILES notation.

Usually IC50 stands for the concentration that inhibits the measured activity by half. Low values mean greater potency in that assay, high ones weaker potency in that assay. Regarding `Cc1nn(CCC(=O)N2CCc3cc(F)ccc3[C@H]2c2cc(Cl)ccc2OCC(=O)O)c2c(F)cccc12` [Example 392], the IC50 under setting [1] was 273 nM.

As for `O=C(O)COc1ccc(F)cc1C1c2ccccc2CCN1C(=O)CCc1ccccc1` (racemic) [Example 123, (±)-{4-Fluoro-2-[2-(3-phenyl-propionyl)-1,2,3,4-tetrahydro-isoquinolin-1-yl]-phenoxy}-acetic acid], the 50% inhibitory concentration (IC50) under setting [2] was determined as 152 nM. This counts as sub-micromolar.

On to `CCn1c(C)c(CCC(=O)N2Cc3ccccc3C2c2cc(Cl)ccc2OCC(=O)O)c2ccccc21` (racemic) [Example 508], for which the IC50 under setting [1] was 127 nM.

Molecule `O=C(O)COc1ccc(Cl)cc1C1c2ccccc2CCN1C(=O)Cc1ccccc1Cl` (racemic) [Example 71, (±)-(4-Chloro-2-{2-[2-(2-chloro-phenyl)-acetyl]-1,2,3,4-tetrahydro-isoquinolin-1-yl}-phenoxy)-acetic acid] registered an IC50 under setting [2] of 291 nM.

On to `N#Cc1ccc(OCC(=O)O)c(C2c3cccc(F)c3CCN2C(=O)OCc2ccccc2)c1` (racemic) [Example 19, (±)-1-(2-Carboxymethoxy-5-cyano-phenyl)-5-fluoro-3,4-dihydro-1H-isoquinoline-2-carboxylic acid benzyl ester], for which, under setting [2], the IC50 was found to be 9.38 nM.

For `O=C(O)COc1cc(F)ccc1C1c2ccccc2CCN1C(=O)OCc1ccccc1` (racemic) [Example 215, (±)-1-(2-Carboxymethoxy-4-fluoro-phenyl)-3,4-dihydro-1H-isoquinoline-2-carboxylic acid benzyl ester], the IC50 under setting [2] was found to be 27 nM.

Molecule `COc1ccc(COC(=O)N2CCc3ccccc3C2c2cc(Cl)ccc2OCC(=O)O)cc1` (racemic) [Example 361] gave an IC50 under setting [1] of 22.8 nM.

For the molecule `O=C(O)COc1ccc(F)cc1C1c2ccccc2CCN1C(=O)Oc1cccc(Cl)c1` (racemic) [Example 178, (±)-1-(2-Carboxymethoxy-5-fluoro-phenyl)-3,4-dihydro-1H-isoquinoline-2-carboxylic acid 3-chloro-phenyl ester], the IC50 under setting [2] was found to be 687 nM.

In the case of `CC(C)(C)OC(=O)N1CCc2ccccc2[C@H]1c1cc(Cl)ccc1OCC(=O)O` [Example 228], the IC50 under setting [2] is 71.3 nM. This IC50 is about 9.6-fold lower than that of the molecule before.

Values taken from patent publication US8575158B2, “1-phenyl-substituted heterocyclyl derivatives and their use as prostaglandin D2 receptor modulators” (Actelion Pharmaceuticals Ltd., priority 2010, dated 2013).
